Assay results as given in patent US7678884B2, “Biologically active peptide and agent containing the same” (Seikagaku Corporation, priority 2003, dated 2010).
Ends that are not written are not given here.

Legend:
PDL cells [1] = assay: Cell differentiation of PDL cells (alkaline phosphatase activity, Bessey-Lowry method); type: cell-based, human; settings: peptide at various concentrations, 2% FBS medium; one week after confluent state; versus control (FIG. 4)
Source text: (§1) PDL cells were isolated from a healthy premolar carefully extracted from a patient who visited a hospital to extract teeth for orthodontic treatment so that periodontal ligament should not be damaged as far as possible, and cultured. The extracted tooth was washed with sterilized physiological saline and phosphate-buffered saline (PBS, Nissui), and then periodontal ligament existing in ⅓ of the tooth root at the center was scraped off with a sharp knife. The pieces of periodontal ligament were transferred to a plastic plate and minced into small fragments using a round-blade knife. Tissue fragments were left standing in a plate having a diameter of 35 mm (FALCON) and cultured in Dulbecco's modified Eagle medium (DMEM, Nissui) containing antibiotics (100 U/ml of penicillin G, 100 μg/ml of streptomycin and 250 μg/ml of gentamicin) and 10% fetal bovine serum (FBS, EQUITECH-BIO) at 37° C. under 5% CO2. Then, cells released from the periodontal ligament tissue fragments were subcultured under the same conditions, and the 3rd to 5th generation cells were used for experiments. • (ii) Mouse-derived Osteoblasts
As an index of cell differentiation, alkaline phosphatase (ALP) activity of cells was determined. Cells were inoculated in a 24-well culture plate at a ratio of 5×10^3 cells/well, added with the peptide (a) at various concentrations and cultured in DMEM or αMEM containing 2% FBS. One week after the time point when the cells reached a confluent state, ALP activity was determined by the following enzymochemical method (Bessey-Lowry method, Bessey O A, Lowry O H and Brock M J, A method for the rapid determination of alkaline phosphatase with five cubic millimeter of serum, J. Biol. Chem., 164:321-329, 1946).
The cultured cells were washed with PBS and then disrupted in 10 mM Tris-HCl buffer (pH 7.4, 500 μl) for 40 seconds by using an ultrasonic homogenizer (Handy Sonic model UR-20P, Tomy Seiko) and stirred. Then, 25 μl of this sample liquid was added to 125 μl of ALP buffer (0.1 M carbonate buffer, pH 9.8, 6.7 mM p-nitrophenyl phosphate, 2 mM MgCl2) and incubated at 37° C. for 30 minutes. The reaction was terminated by addition of 125 μl of 0.2 N NaOH, and absorbance was measured at 405 nm by using a microplate reader (Model 550, Bio-Rad Laboratories).
Further, the ALP activity in DMEM containing 2% FBS and DMEM or αMEM containing 2% FBS added with peptide (c) at various concentrations was also similarly examined. The symbol “cont” in FIG. 4 indicates the results for the cells cultured in DMEM containing 2% FBS alone, “PN” indicates the results for the cells cultured in the medium added only with the peptide (a), and “PC” indicates the results for the cells cultured in the medium added only with the peptide (c). In FIG. 4, “pg” and “ng” represent “pg/ml” and “ng/ml,” respectively.
Further, in addition to the peptide (a) (derived from swine), the human-derived peptide (b) and BMP were similarly examined. The results of ALP activity measurement performed when the cells reached a confluent state are shown in FIG. 5, and the results of ALP activity measurement performed one week after the confluent state was attained are shown in FIG. 6. The symbol “cont” in the figures indicates the results for the cells cultured in DMEM containing 2% FBS alone, “B” indicates the results for the cells cultured in the medium added only with BMP2, “PN” indicates the results for the cells cultured in the medium added only with the peptide (a), and “HN” indicates the results for the cells cultured in the medium added only with the peptide (b) In the figures, the unit of numerical values shown after “B,” “PN” and “HN” is “ng/ml.”

[2] = test system: Human-derived Periodontal Ligament Cells (PDL Cells); assay: Cell growth of PDL cells (cell number by Coulter counter); type: cell-based; settings: peptide added at various concentrations to DMEM containing 2% FBS; counted on Days 4 and 6; versus control medium (FIG. 1, FIG. 2)
Source text: as §1, with “Then, cells released from the periodontal ligament tissue fragments were subcultured under the same conditions, and the 3rd to 5th generation cells were used for experiments. • (ii) Mouse-derived Osteoblasts” left out
The PDL cells prepared in (1) were inoculated on a 24-well culture plate (FALCON) at a ratio of 5×10^3 cells/well. […] On Days 4 and 6, the cells were separated and dispersed by using PBS containing 0.08% trypsin and 0.04% ethylenediaminetetraacetic acid (EDTA), and cell number was counted by using a Coulter counter (COULTER Z1, Coulter Electronics). […]

PDL cells [3] = assay: Calcification product forming ability of PDL cells (Dahl's calcium staining, alizarin red S); type: cell-based, human; settings: peptide at various concentrations, 10 mM sodium β-glycerophosphate, three weeks after confluent state
Procedure: The following experiment was performed to examine effect of the peptide on calcification product forming ability of cells.
To assess calcification ability of cells, Dahl's calcium staining was performed. The PDL cells were inoculated on a 24-well culture plate at a ratio of 5×10^3 cells/well, and cultured in 2S-containing DMEM added with the peptide (a) or (c) at various concentrations and adjusted by addition of 10 mM sodium β-glycerophosphate. Three weeks after the cells reached a confluent state, the cells were washed with PBS, fixed with neutrally buffered formalin and stained with alizarin red S (Wako Pure Chemical Industries).

NKAQQPQIKRDAWRF [(c)]
significantly increased: ALP activity of the PDL cells (PDL cells [1]) | PDL cell number (cell growth promoting effect) [2] | calcification ability of the PDL cells (PDL cells [3])
